Entries after “also recorded” stand apart in the source; their conditions may differ. Where no end group is shown, it is not given here. [ ]: non-standard residue; d: D form.
Tests used:
L1210 = assay: Tumor cell proliferation (WST-1), L1210; type: cell-based, mouse; settings: FIG. 11
Experimental: Peptides to be tested were prepared at a stock concentration of 10 mM in sterile phosphate buffered saline. Cancer cell lines obtained from the American Type Culture Collection (MG-63, HT1080, A498, BxPC3, 786-0, PC-3, B16F1, B16F10, P388D1, Jurkat, MOLT4, THP-1, U-937, L1210, RPMI 8226, NCI H929, U266B1, K562) were cultured under appropriate conditions as described in the literature. Cell culture media and reagents were obtained from ATCC (Manassas, Va.), Invitrogen (Carlsbad, Calif.) or Mediatech (Herndon, Va.). Exponentially growing cultures were used for cell proliferation assays. Adherent cells were plated at a concentration of 100000 cells per milliter in growth media overnight (18-24 h) and treated the next day in a low serum media (growth media with 1% FBS for MG-63, HT1080, A498, BxPC3, PC-3, B16F1, B16F10. 786-0 cells were treated in media with 5% FBS). Suspension cell lines (P388D1, Jurkat, MOLT4, THP-1, U-937, L1210, RPMI 8226, NCI H929, U266B1, and K562) were diluted to a concentration of 100,000 cells per ml and treated on the same day with peptides. Peptides were diluted in treatment media and cells were treated for 48 or 72 hours depending on the cell line. Each dose was tested in triplicate for each experiment, and experiments were repeated for a minimum of three discrete times. After incubation, the relative number of cells was determined using WST-1 (Roche Applied Science). A 9.5 μl aliquot of WST-1 was added to each well. The plate was immediately read at 440 nm using a Bio-Tek PowerWave XS microplate reader, incubated for 2-3 hours at 37° C. and then read again. Cell proliferation was determined as the percent of the control cell proliferation. The absorbance of each well at time 0 was subtracted from the value of the final reading. Afterwards the blank values were averaged and subtracted from each test and control value. Finally, each test absorbance was divided by the average of the control absorbances and multiplied by 100 to obtain the percent of control. […]

[1] = system: L1210 murine leukemia cells; assay: L1210 murine leukemia intravenous model, survival; type: in vivo, mouse; settings: dosed IP, FIG. 15a
Experimental: Antitumor activity of test peptides, administered intraperitoneally (IP), were evaluated against L1210 murine leukemia cells implanted intravenously (IV) in DBA/2 mice.
Studies generally consisted of randomly-assigned groups of 8 mice per group, which were inoculated IV with 1×10^5 cells per mouse from an in vivo leukemia cell line. In addition to groups tested with test peptides, studies usually included a vehicle-treated control group and a positive control group treated with an agent known to be active in the L1210 leukemia model. Starting one day after tumor inoculation (inoculation day defined as Day 0), mice were treated IP with either vehicle or test peptides in various schedules. Generally this consisted of treatment every other day for approximately 1 week (e.g., Days 1, 3, 5 and 7). A positive agent (e.g., cyclophosphamide) was usually given as a single IP injection on Day 1. All dosing solutions were prepared on each day of treatment. Survival was monitored daily and body weights were measured twice weekly. Anti-tumor activity was assessed by the increase in lifespan of the treated groups in comparison to the vehicle-treated control group. Studies with the L1210 leukemia model were limited to 30 days.

[2] = system: Human Umbilical Vein Endothelial Cells; assay: bFGF-mediated survival/proliferation of human umbilical vein endothelial cells (WST1); type: cell-based; settings: FIG. 6, 9, 10, 17
Experimental: (§1) The anti-angiogenic activities of the peptides were tested by measuring the level of inhibition of VEGF and bFGF mediated survival/proliferation of Bovine Retinal Endothelial Cells (BRE), Human Dermal Microvasculature Endothelial Cells, and Human Umbilical Vein Endothelial Cells, all of which are standard cell lines used to test anti-angiogenic compounds.
Human umbilical cord endothelial (HUVEC) cells were maintained in Cambrex EGM-2MV media. On day one, cells were starved overnight in 1% FBS in M200 media (Cascade Biologicals). The morning after, the media were replaced with serum-free media (control) or media containing 25 ng/ml of human VEGF165 and the various peptides to final concentrations as described.
(§2) In all cases, after 72 hours incubation, the amount of live cells in each well was measured with the WST1 assay (Roche).

[3] = Heparin binding activity, Hi Trap Heparin HP column, NaCl step elution; settings: for [NaCl] for elution: heparin column, step gradient in 10 mM NaH2PO4 pH 7
Excerpt: Liquid chromatography was used to determine the relative levels of heparin binding activity of the individual heparin binding domains and of the anti-angiogenic miniproteins that contains them. In this assay, the strength of the heparin binding activity is proportional to the amount of NaCl that is required to elute the peptide bound to the heparin column. Peptides with low binding activity are eluted with lower NaCl concentration, whereas higher concentrations of NaCl are required for peptides with higher binding activity.
Hi Trap Heparin HP column (1 ml, Amersham Biosciences) was equilibrated with 10 column volumes (CV) of equilibration (EQ) buffer=10 mM NaH2PO4 pH 7. All buffers were loaded onto columns via syringes. 500 μl fractions are collected (flow rate=1 ml/minute). 500 μg of peptide (1 mg/ml, resuspended in EQ buffer) was added to each column and the flow through was collected for analysis. The columns were then washed with 3 CV of EQ buffer. Peptides are then eluted with a step gradient of 500, 625, 750, 875 mM NaCl in EQ buffer, 2 CV per each step. A final step of 3 CV of 1000 mM NaCl in EQ buffer was collected in 500 μl fractions. The A210 nm was measured using EQ and elution buffers as blanks.

[4] = system: RPMI-8226 human myeloma xenografts; assay: RPMI-8226 human myeloma subcutaneous xenograft model; type: in vivo, mouse; settings: scid mice, FIG. 16
Experimental: Anti-tumor efficacy of test peptides was evaluated against RPMI-8226 human myeloma xenografts implanted subcutaneously (sc) in severe compromised immunodeficient (scid) mice.
Studies generally consisted of randomly-assigned groups of 8 or 10 mice per group, which were implanted sc with myeloma fragments (30-40 mg). In addition to groups tested with test peptides, studies usually included a vehicle-treated control group and a positive control group treated with an agent known to be active in the RPMI-8226 model. In one type of schedule, mice were treated IP with either vehicle or test peptides starting one day after tumor implantation (implantation day defined as Day 0). Test peptides and vehicle were generally administered IP daily for 3-4 weeks.
Dosing solutions of the test peptides were prepared weekly and kept at −20° C. between injections. […] Each tumor was measured by caliper in two dimensions and converted to tumor mass using the formula for a prolate ellipsoid (a X b^2/2), where a is the longer dimension and b is the smaller dimension, and assuming unit density (1 mm^3=1 mg). Tumor measurements were recorded twice weekly. Body weights were also recorded twice weekly. Anti-tumor activity was assessed by the delay in tumor growth of the treated groups in comparison to the vehicle-treated control group, partial and complete regressions, and tumor-free survivors. […]

tumor cells = assay: Ability to induce tumor cell death (general statement); type: cell-based
Experimental: Peptides to be tested were prepared at a stock concentration of 10 mM in sterile phosphate buffered saline. Cancer cell lines obtained from the American Type Culture Collection (MG-63, HT1080, A498, BxPC3, 786-0, PC-3, B16F1, B16F10, P388D1, Jurkat, MOLT4, THP-1, U-937, L1210, RPMI 8226, NCI H929, U266B1, K562) were cultured under appropriate conditions as described in the literature. Cell culture media and reagents were obtained from ATCC (Manassas, Va.), Invitrogen (Carlsbad, Calif.) or Mediatech (Herndon, Va.). Exponentially growing cultures were used for cell proliferation assays. […] After incubation, the relative number of cells was determined using WST-1 (Roche Applied Science). […] The plate was immediately read at 440 nm using a Bio-Tek PowerWave XS microplate reader, incubated for 2-3 hours at 37° C. and then read again. Cell proliferation was determined as the percent of the control cell proliferation. The absorbance of each well at time 0 was subtracted from the value of the final reading. […] Finally, each test absorbance was divided by the average of the control absorbances and multiplied by 100 to obtain the percent of control.

[5] = system: Bovine Retinal Endothelial Cells (BRE); assay: VEGF-mediated survival/proliferation of bovine retinal endothelial cells (WST1); type: cell-based; settings: VEGF 25 ng/ml, 72 hours, FIG. 4 and 5
Experimental: as §1
Bovine retinal endothelial (BRE) cells were maintained in Cambrex EG2 media. For non-adherent cell assays, on day one cells were starved for either 6 hours or overnight, then trypsinized and plated in 96-well plates in 100 μl of Optimem plus 1% fetal bovine serum (FBS). One hundred μl of Optimem plus 1% FBS was added to the wells containing, where appropriate, VEGF to a final concentration of 25 ng/ml, and the various peptides to final concentrations as described. For adherent cells, cells were plated in 96-well plates in complete media, allowed to adhere overnight, washed in starvation media (Optimem plus 1% FBS) and then starved during the day. At the end of the day, 100 μl of Optimem plus 1% FBS was added to the wells containing, where appropriate, VEGF to a final concentration of 25 ng/ml and the various peptides to final concentrations as described.
as §2

[6] = Biological activity of D-amino acid versions of ST100,038 (test not specified); settings: tested against a control
Experimental: D-amino acid peptides can be made by generating a D-amino acid peptide with the same sequence as a L-amino acid peptide or by preparing a retro inverso form of a peptide. ST100,045 (SEQ ID NO.: 31) has the same sequence as ST100,038 (SEQ ID NO.: 29) was tested against ST100,059 (SEQ ID NO.: 30) which is the retro inverso version of ST100,038 and a control.

B16-F1 melanoma cells = assay: Subcutaneous B16 melanoma tumor growth in vivo; parameters: species or system mouse; settings: 20 mg/kg daily IP; for Inhibition of tumor growth: vs untreated controls, FIG. 12 and 14
Experimental: Because of the importance of the angiogenic process for tumorigenesis, miniproteins as described herein, were hypothesized to show good anti-tumor activity. The peptides of the invention were tested in an in vivo model of anti-tumor activity. This model compares the growth of subcutaneous B16 melanoma tumor in vivo either untreated or treated with various amount of miniproteins described in this application. This model is widely accepted in the art as a model to test the anti-tumor activity of compounds that inhibit tumor growth because they have anti-angiogenic activity.
Male C57BL/6 mice were obtained with a mean body weight of 20±2 g. Mouse B16-F1 melanoma cells were implanted subcutaneously (5×10^5 cell per animal). Peptides (formulated in water) were administered ip daily at the amount indicated starting the day after cells injection. In general, tumors became palpable around 9 days after injection of cells. Tumor were then measured every 2 days.

[7] = system: Human Dermal Microvasculature Endothelial Cells; assay: bFGF-mediated survival/proliferation of human dermal microvasculature endothelial cells; type: cell-based; settings: 30, 100, and 200 μg/ml, FIG. 8
Experimental: as §1, §2
(§3) In a further experiment, the anti-angiogenic activity of peptide ST100,061 (SEQ ID NO.: 3), a derivative of ST100,032 (SEQ-ID NO.: 1), at concentrations of 30, 100, and 200 μg/ml was tested by measuring the level of inhibition of VEGF and bFGF mediated survival/proliferation in human dermal microvasculature endothelial cells.

[8] = system: Human Dermal Microvasculature Endothelial Cells; assay: VEGF-mediated survival/proliferation of human dermal microvasculature endothelial cells; type: cell-based; settings: 30, 100, and 200 μg/ml, FIG. 8
Experimental: as §1, §2, §3

Sequence	Inhibition of proliferation of mouse leukemia L1210 cells (L1210)	Survival ([1]; DBA/2 mice)	mice (cured mice) that survived longer than 30 days [1]	Inhibition of bFGF-mediated survival [2]	heparin binding activity (comparison in words) [3]	[NaCl] for elution [3] [mM]	Inhibition of tumor growth ([4]; 25 mg/kg daily IP)	ability to induce tumor cell death (comparison in words) (tumor cells)	Inhibition of VEGF-mediated survival/proliferation [5]	biological activity [6]	P (ANOVA) of tumor growth inhibition (B16-F1 melanoma cells; FIG. 12)	Inhibition of tumor growth (B16-F1 melanoma cells)	Inhibition of tumor growth ([4]; 100 mg/kg daily IP)	Inhibition of bFGF mediated survival/proliferation [7]	Inhibition of VEGF mediated survival/proliferation [8]
RRGRAARRGRAAKKKRLGYVVSDGRGDYP [ST100,064, retro-inverso form of ST100,061]	able to block cell proliferation and induce cell death	statistically significant increases in survival	Sixty to eighty	can inhibit bFGF mediated survival as effectively as ST100,061; also recorded: the most active in inhibiting bFGF stimulation	much more active; also recorded: bind less strongly than ST100,082	875	able to inhibit tumor growth	much more active							
PSQSSHPPLSTA ([dP][dS][dQ][dS][dS][dH][dP][dP][dL][dS][dT][dA]; listed as Homo sapiens) [ST100,059, retro inverso version of ST100,038]						0			VEGF stimulation was inhibited with increasing doses	biologically active	< 0.05	clearly inhibit tumor growth	does not inhibit tumor growth		
PYDGRGDSVVYGLRKKKAARGRRAARGRR (listed as Homo sapiens) [ST100,061]												may be less active		effective in inhibiting both VEGF and bFGF	effective in inhibiting both VEGF and bFGF
